The target of experiment [1] is T1, Coelenterazine h 2-monooxygenase (Renilla reniformis, UniProt P27652).
T1 sequence (P27652 whole entry): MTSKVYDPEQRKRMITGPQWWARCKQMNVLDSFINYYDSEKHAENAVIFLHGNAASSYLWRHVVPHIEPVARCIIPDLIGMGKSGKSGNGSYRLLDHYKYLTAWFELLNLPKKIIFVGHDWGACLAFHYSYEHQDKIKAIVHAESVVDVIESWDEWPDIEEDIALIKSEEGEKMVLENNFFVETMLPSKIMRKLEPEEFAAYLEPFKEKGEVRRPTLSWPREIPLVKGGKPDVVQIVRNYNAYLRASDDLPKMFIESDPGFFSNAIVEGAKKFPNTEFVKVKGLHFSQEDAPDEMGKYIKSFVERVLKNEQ
Description: GSK_PKIS: Inhibition of Sea Pansy Luciferase (Data from PubChem: AID 652015) [NIH NCATS]

Experiment [2] addresses Luciferin 4-monooxygenase (Photinus pyralis, UniProt P08659).
Description: GSK_PKIS: Inhibition of Firefly Luciferase (Data from PubChem: AID 652016) [NIH NCATS]

Luciferin 4-monooxygenase, sequence (P08659 whole entry): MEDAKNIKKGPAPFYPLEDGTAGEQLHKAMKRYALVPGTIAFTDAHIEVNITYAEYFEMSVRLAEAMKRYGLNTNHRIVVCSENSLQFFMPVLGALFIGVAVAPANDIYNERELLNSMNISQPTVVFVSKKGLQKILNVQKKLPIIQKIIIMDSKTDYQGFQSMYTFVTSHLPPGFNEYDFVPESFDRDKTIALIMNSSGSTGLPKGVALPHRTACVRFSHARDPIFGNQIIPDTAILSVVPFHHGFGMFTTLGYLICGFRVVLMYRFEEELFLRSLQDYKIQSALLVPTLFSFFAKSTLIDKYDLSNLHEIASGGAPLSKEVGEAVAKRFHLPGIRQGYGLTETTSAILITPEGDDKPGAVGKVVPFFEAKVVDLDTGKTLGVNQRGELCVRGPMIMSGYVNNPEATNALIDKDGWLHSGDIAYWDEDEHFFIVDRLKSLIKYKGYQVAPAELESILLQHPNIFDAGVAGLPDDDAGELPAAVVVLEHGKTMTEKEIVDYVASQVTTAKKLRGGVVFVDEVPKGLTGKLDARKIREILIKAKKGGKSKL

One may read the AC50 as the concentration giving half of the maximal activity seen. `Clc1ccc(-c2nn3ncccc3c2-c2ccnc(Nc3ccccc3)n2)cc1` [GW829055X]: the AC50 entry in experiment [1] and in experiment [2] was “Phenotype: Inactive; Curve_Description: None” throughout.
As to `COc1ccc(-c2nn3ncccc3c2-c2ccnc(Nc3ccc(Cl)c(C(F)(F)F)c3)n2)cc1` [GW829115X], the AC50 entry in experiment [1] is listed as “Phenotype: Activator; Curve_Description: None”; in experiment [2] it was “Phenotype: Inactive; Curve_Description: None”.
On the same counts, the results for `COc1cccc(/C=N/Nc2ncnc3c2cnn3-c2cccc(OC)c2)c1` [GW829874X] are “Phenotype: Inactive; Curve_Description: None” and “Phenotype: Inactive; Curve_Description: None”.
With `COc1cccc(-n2ncc3c(N/N=C/c4ccc(C)cc4)ncnc32)c1` [GW829877X], the AC50 result in experiment [1] and in experiment [2] was “Phenotype: Inactive; Curve_Description: None” in each case.
With `Cc1ccc2c(-c3ccnc(Nc4cccc(C(F)(F)F)c4)n3)c(-c3ccccc3)nn2n1` [GW829906X], the AC50 result in experiment [1] was “Phenotype: Inactive; Curve_Description: None”; in experiment [2] (read-out: AC50), 41.1 µM.
With `CN1CCN(C(=O)c2ccc(NC(=O)Nc3ccc(N(C)c4ccnc(Nc5ccc(CS(C)(=O)=O)cc5)n4)cc3)cc2)CC1.Cl` [GW830263A], the AC50 entry in experiment [1] was “Phenotype: Inactive; Curve_Description: None”; in experiment [2] (read-out: AC50), 9.19 µM.
For `CN(c1ccc(NC(=O)NCCN2CCOCC2)cc1)c1ccnc(Nc2ccc(CS(C)(=O)=O)cc2)n1.Cl` [GW830365A], the figures for the AC50 result in experiment [1] and in experiment [2] (read-out: AC50) were “Phenotype: Inactive; Curve_Description: None” and 20.6 µM, respectively.
For `CN(C)CCNC(=O)Nc1ccc(N(C)c2ccnc(Nc3ccc(CS(C)(=O)=O)cc3)n2)cc1.Cl` [GW830900A], the AC50 result in experiment [1] is “Phenotype: Inactive; Curve_Description: None”; in experiment [2] (read-out: AC50) it was 29.1 µM.
In the case of `NS(=O)(=O)c1ccc(Nc2cc(-c3cccc(O)c3)n[nH]2)cc1` [GW831090X], the AC50 entry in experiment [1] was “Phenotype: Inactive; Curve_Description: None”; in experiment [2] (read-out: AC50) it was 20.6 µM.
In the case of `NS(=O)(=O)c1ccc(Nc2cc(-c3ccc(O)c(F)c3)n[nH]2)cc1` [GW831091X], the results for the half-maximal activity concentration (AC50) in experiment [1] (read-out: AC50) and in experiment [2] were 36.6 µM and “Phenotype: Inactive; Curve_Description: None”, respectively.
On to `Cc1ccc2c(-c3ccnc(Nc4ccc5c(c4)OCCO5)n3)c(-c3ccc(C(F)(F)F)cc3)nn2n1` [GW832467X], for which the AC50 result in experiment [1] and in experiment [2] was “Phenotype: Inactive; Curve_Description: None” throughout.
In the case of `Cc1ccc2c(-c3ccnc(Nc4ccccc4)n3)c(-c3ccc(F)cc3)nn2n1` [GW833373X], the AC50 entry in experiment [1] and in experiment [2] was “Phenotype: Inactive; Curve_Description: None” throughout.
As to `COc1cc(Nc2ncc3c(C)nc(-c4cccc(C(F)(F)F)c4)n3n2)cc(OC)c1OC` [GW837331X], the AC50 result in experiment [1] and in experiment [2] was “Phenotype: Inactive; Curve_Description: None” throughout.
For the compound `COc1cc2ncn(-c3cc(OCc4ccccc4C(F)(F)F)c(C(N)=O)s3)c2cc1OC` [GW843682X], the AC50 entry in experiment [1] and in experiment [2] was “Phenotype: Inactive; Curve_Description: None” in each case.
With `COc1cc2ncn(-c3cc(OCc4ccccc4Cl)c(C(N)=O)s3)c2cc1OC` [GW852849X], the AC50 result in experiment [1] and in experiment [2] was “Phenotype: Inactive; Curve_Description: None” throughout.
`NC(=O)c1sc(-n2cnc3ccc(C(F)(F)F)cc32)cc1OCc1ccccc1Br` [GW853606X]: the AC50 entry in experiment [1] and in experiment [2] was “Phenotype: Inactive; Curve_Description: None” throughout.
For `NC(=O)c1sc(-n2cnc3cc(C(F)(F)F)ccc32)cc1OCc1ccccc1Br` [GW853609X], the AC50 entry in experiment [1] and in experiment [2] was “Phenotype: Inactive; Curve_Description: None” in each case.
In the case of `Nc1ncc(-c2cccc(S(N)(=O)=O)c2)c2scc(-c3ccc(F)c(Cl)c3)c12` [GW856804X], the AC50 was 36.6 µM in experiment [1] (read-out: AC50) and “Phenotype: Inactive; Curve_Description: None” in experiment [2].
For the compound `COc1cc(Nc2ncc3c(C)nc(-c4cccc(Oc5ccccc5)c4)n3n2)cc(OC)c1OC` [GW861893X], the AC50 entry in experiment [1] and in experiment [2] was “Phenotype: Inactive; Curve_Description: None” each time.
For `O=C(O[C@H]1CN[C@H](C#Cc2cc3ncnc(Nc4ccc(OCc5cccc(F)c5)c(Cl)c4)c3s2)C1)N1CCOCC1` [GW869810X], the concentration at half-maximal activity (AC50) entry is “Phenotype: Inactive; Curve_Description: None” in experiment [1] and 20.6 µM in experiment [2] (read-out: AC50).
On to `Cc1nc(-c2ccccc2)n2nc(NCCCN3CCOCC3)ncc12` [GW874091X], for which the AC50 entry in experiment [1] and in experiment [2] was “Phenotype: Inactive; Curve_Description: None” in each case.
As for `CCn1c(-c2nonc2N)nc2cncc(C(=O)NCCNC)c21` [GW876790X], the concentration at half-maximal activity (AC50) result in experiment [1] and in experiment [2] was “Phenotype: Inactive; Curve_Description: None” in each case.
As for `COc1cccc(Nc2nccc(-c3cnn4ncccc34)n2)c1` [PYRAZOLOPYRIDAZINE 1], the AC50 result in experiment [1] and in experiment [2] was “Phenotype: Inactive; Curve_Description: None” in each case.
Take `COc1cccc(-n2ncc3c(N/N=C/c4ccc(S(C)(=O)=O)cc4)ncnc32)c1` [PYRAZOLOPYRIMIDINE 2]: the AC50 result in experiment [1] was “Phenotype: Inactive; Curve_Description: None”; in experiment [2] (read-out: AC50), 18.3 µM.
As for `Fc1ccc(-c2ncn(CCCN3CCOCC3)c2-c2ccncc2)cc1` [SB-210313], the AC50 entry is recorded as “Phenotype: Activator; Curve_Description: None” in experiment [1] and “Phenotype: Inactive; Curve_Description: None” in experiment [2].

The values above are taken from ChEMBL document CHEMBL2303647, “Data associated with the publication PLoS ONE, 8(3), e57888, (2013) PMID: 23505445. Compounds: GSK PKIS; Assays: NIH NCATS”.
